The source of these data is paper PMC5607274, “An iterative compound screening contest method for identifying target protein inhibitors using the tyrosine-protein kinase Yes” (Scientific Reports, 2017).

In the first assay the target is T1, human recombinant Yes [a.a. 2–543 (end)] (Homo sapiens, UniProt P07947).
T1 construct: human recombinant Yes [a.a; 2–543 (end)]; purchased BPS Bioscience 40488
T1 sequence (P07947 2-543): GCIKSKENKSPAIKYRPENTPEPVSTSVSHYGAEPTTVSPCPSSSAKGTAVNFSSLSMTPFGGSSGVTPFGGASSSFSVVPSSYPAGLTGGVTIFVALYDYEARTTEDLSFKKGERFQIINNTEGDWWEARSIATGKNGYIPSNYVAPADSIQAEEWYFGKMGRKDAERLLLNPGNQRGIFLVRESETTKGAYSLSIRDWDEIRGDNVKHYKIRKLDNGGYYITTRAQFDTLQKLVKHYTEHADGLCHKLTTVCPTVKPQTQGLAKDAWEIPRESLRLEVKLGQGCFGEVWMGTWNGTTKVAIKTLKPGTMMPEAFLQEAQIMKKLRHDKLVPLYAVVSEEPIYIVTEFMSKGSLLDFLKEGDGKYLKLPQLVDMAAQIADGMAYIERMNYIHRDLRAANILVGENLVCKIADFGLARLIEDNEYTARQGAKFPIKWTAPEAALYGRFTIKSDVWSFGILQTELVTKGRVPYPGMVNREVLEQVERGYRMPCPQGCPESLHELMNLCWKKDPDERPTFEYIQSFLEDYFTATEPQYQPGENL
Description: ADP-Glo kinase assay, inhibition rates of Yes phosphorylation activity (first and second screening). Format: biochemical. The conditions noted are these: first screening; mean of n = 4 wells; 10 μmol L−1 compound. Summed up: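 ADP-Glo luminescence measured inhibition of human recombinant Yes (a.a. 2–543) phosphorylation activity. In the first screen, each compound ran in 4 wells and inhibition rates were averaged. The second screen retested hits as compounds dissolved from fresh powder.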
For the molecule `CCN(CCNC(=O)c1[nH]c2c(c1C)C(=O)CCC2)c1cccc(C)c1` [Compound Z188949814], the “First screening IR (inhibition rate)” value was -5%.

In the case of `CC(C)(C)C1CCC(C(=O)N2CCC(C(=O)N3CCCCCC3)CC2)CC1` (stereo not drawn) [Compound Z191288442], the “First screening IR (inhibition rate)” value is 7%.

In the case of `Cc1noc(C)c1CCC(=O)Nc1nc2cc(C(F)(F)F)ccc2n1Cc1ccco1` [Compound Z193270258], the “First screening IR (inhibition rate)” value amounted to 0%.

With `CN(C)c1nc(N)nc(CSc2nnc(-c3ccccc3)n2C)n1` [Compound Z193722710], the “First screening IR (inhibition rate)” value was found to be 6%.

For the molecule `CCC(Sc1n[nH]c(C(C)C)n1)C(=O)Nc1ccc(F)cc1` (stereo not drawn) [Compound Z193785446], the “First screening IR (inhibition rate)” value was -8%.

On to `Cc1ccc(C)c(C(=O)CCC(=O)NC(C)c2nc3ccccc3[nH]2)c1` (stereo not drawn) [Compound Z195395734], for which the “First screening IR (inhibition rate)” value is on record as 1%.

Consider `Cc1c(C#N)c(NC(=O)CN2CCN(CC(=O)N3CCCCC3)CC2)n(-c2cccc(F)c2)c1C` [Compound Z195846234], for which the “First screening IR (inhibition rate)” value stood at 0%.

Consider `CC(C)CCn1c(CN2CCN(Cc3ccco3)CC2)nc2c1c(=O)[nH]c(=O)n2Cc1ccccc1` [Compound Z195914778], for which the “First screening IR (inhibition rate)” value is given as -3%.

For the molecule `CC(C)CNC(=O)CN1CCN(c2nc(-c3ccccn3)nc3scc(-c4ccccc4)c23)CC1` [Compound Z196146788], the “First screening IR (inhibition rate)” value came out at 2%.

Consider `CC(=O)N1CC=C(c2ccc(Oc3nc(-c4cccnc4)nc4ccccc34)cc2)CC1` [Compound Z196157908], for which the “First screening IR (inhibition rate)” value is listed as -13%.

In the case of `CN1C/C(=C/c2ccc(SC(F)(F)F)cc2)c2nc3ccccc3c(C(=O)O)c2C1` [Compound Z196352976], the “First screening IR (inhibition rate)” value was -14%.

With `Cc1cn2c(/C=C/C(=O)c3ccc(OCC(=O)N(C)C)cc3)c(C)nc2s1` [Compound Z196370782], the “First screening IR (inhibition rate)” value was -2%.

On to `CN(C)c1nc(N)nc(CSCC(=O)Nc2cccc(Cl)c2Cl)n1` [Compound Z197452730], for which the “First screening IR (inhibition rate)” value is recorded as 4%.

For `CN(C)c1nc(N)nc(CSCCOc2ccccc2F)n1` [Compound Z197453168], the “First screening IR (inhibition rate)” value was found to be 9%.

As for `CN(C)c1nc(N)nc(CSCCOc2ccc(F)cc2)n1` [Compound Z197453372], the “First screening IR (inhibition rate)” value is recorded as -8%.

As for `Cc1cc(C(=O)CSCc2nc(N)nc(N(C)C)n2)c(C)n1C1CC1` [Compound Z197454120], the “First screening IR (inhibition rate)” value turned out to be 4%.

Take `CC(SCc1nc(N)nc(N(C)C)n1)C(=O)Nc1ccc(F)cc1F` (stereo not drawn) [Compound Z197454476]: the “First screening IR (inhibition rate)” value is -5%.

On to `CC(SCc1nc(N)nc(N(C)C)n1)C(=O)Nc1cc(F)ccc1F` (stereo not drawn) [Compound Z197454478], for which the “First screening IR (inhibition rate)” value was 15%.

As to `CC(SCc1nc(N)nc(N(C)C)n1)C(=O)NC1CCCCCC1` (stereo not drawn) [Compound Z197454502], the “First screening IR (inhibition rate)” value worked out at 1%.

As to `CC(SCc1nc(N)nc(N(C)C)n1)C(=O)Nc1ccc2c(c1)CCC2` (stereo not drawn) [Compound Z197454542], the “First screening IR (inhibition rate)” value is 5%.

In the case of `COc1ccc(C)cc1C(C)NC(=O)CCc1nc2ccccc2[nH]1` (stereo not drawn) [Compound Z197873940], the “First screening IR (inhibition rate)” value is given as 60%.

Turning to `Nc1nc(-c2ccccc2)c2cc(C(=O)c3ccccc3O)cnn12` [Compound Z199055452], the “First screening IR (inhibition rate)” value came to 7%.

`CN(Cc1ccc(N2CCOCC2)cc1)Cc1c(O)ccc2ccncc12` [Compound Z199499666]: the “First screening IR (inhibition rate)” value is -18%.

Regarding `CS(=O)(=O)c1ccc(N2CCCCCC2)c(S(C)(=O)=O)c1` [Compound Z199538216], the “First screening IR (inhibition rate)” value is listed as 51%.

For `CN(CCO)c1ccc(S(C)(=O)=O)cc1S(C)(=O)=O` [Compound Z199538264], the “First screening IR (inhibition rate)” value is 3%.

For `CCCCN(C)c1ccc(S(C)(=O)=O)cc1S(C)(=O)=O` [Compound Z199538358], the “First screening IR (inhibition rate)” value is listed as 8%.

On to `CCC(NC(=O)c1cc(C)nc2c1cnn2C(C)C)c1ccc(C)cc1` (stereo not drawn) [Compound Z203056244], for which the “First screening IR (inhibition rate)” value is reported as -5%.

For the molecule `COc1ccc(S(=O)(=O)N[C@@H](C)C(=O)N2CC=C(c3c(OC)cc(OC)cc3OC)CC2)cc1` [Compound Z203177000], the “First screening IR (inhibition rate)” value came to 0%.

Turning to `Cc1cc(C(=O)Nc2ccc(F)c(F)c2)c2cnn(C(C)C)c2n1` [Compound Z203269322], the “First screening IR (inhibition rate)” value worked out at 39%.

For the molecule `N#Cc1ccccc1CSCCNc1cc(=O)n2ccccc2n1` [Compound Z203909940], the “First screening IR (inhibition rate)” value was -8%.

With `CC(C)c1cccc(NC(=O)CN(C)CC(=O)N2c3ccccc3NC(=O)CC2C)c1` (stereo not drawn) [Compound Z203963094], the “First screening IR (inhibition rate)” value is -10%.

Turning to `O=C(c1ccc(Cl)c(S(=O)(=O)N2CCCCC2)c1)N1CCn2c1nc1ccccc12` [Compound Z204253774], the “First screening IR (inhibition rate)” value is listed as -4%.

Take `O=C(Nc1cc(-c2cccc([N+](=O)[O-])c2)sc1C(=O)O)c1cc2c(s1)CCC2` [Compound Z204341220]: the “First screening IR (inhibition rate)” value is reported as -3%.

`O=C(/C=C/c1ccco1)Nc1cc(-c2cccc([N+](=O)[O-])c2)sc1C(=O)O` [Compound Z204341820]: the “First screening IR (inhibition rate)” value is reported as -3%.

Turning to `O=C(/C=C/c1cccs1)Nc1cc(-c2cccc([N+](=O)[O-])c2)sc1C(=O)O` [Compound Z204342158], the “First screening IR (inhibition rate)” value was found to be 58%.

As to `O=C(Nc1cc(-c2cccc([N+](=O)[O-])c2)sc1C(=O)O)c1ccc2c(c1)OCCO2` [Compound Z204342356], the “First screening IR (inhibition rate)” value was -1%.

As to `O=C(Nc1cc(-c2cccc([N+](=O)[O-])c2)sc1C(=O)O)c1ccc2c(c1)CCC2` [Compound Z204342388], the “First screening IR (inhibition rate)” value was -1%.

Consider `CC(Sc1nc2ncccn2n1)C(=O)Nc1ccc(Cl)cc1Cl` (stereo not drawn) [Compound Z207321514], for which the “First screening IR (inhibition rate)” value was determined as 5%.

With `O=c1[nH]c2ccccc2c2nc(-c3ccc(CSc4nc5ccccc5[nH]4)cc3)nn12` [Compound Z208192218], the “First screening IR (inhibition rate)” value was 16%.

On to `Cc1cc(COC(=O)c2cc(-c3cccs3)nc3c2cnn3C(C)C)no1` [Compound Z215601214], for which the “First screening IR (inhibition rate)” value is -2%.

In the case of `CC(C)n1ncc2c(C(=O)Nc3ccccc3F)cc(-c3ccco3)nc21` [Compound Z216407296], the “First screening IR (inhibition rate)” value stood at 37%.

Take `CC(=O)c1cccc(NC(=O)c2cc(-c3ccco3)nc3c2cnn3C(C)C)c1` [Compound Z216416610]: the “First screening IR (inhibition rate)” value was -1%.

Regarding `CC(C)n1ncc2c(C(=O)Nc3ccc(F)cc3Cl)cc(-c3ccco3)nc21` [Compound Z216417110], the “First screening IR (inhibition rate)” value is listed as 21%.

`CC(C)n1ncc2c(C(=O)Nc3ccc(F)c([N+](=O)[O-])c3)cc(-c3ccco3)nc21` [Compound Z216541962]: the “First screening IR (inhibition rate)” value is -1%.

Take `CC(C)n1ncc2cc(C(=O)Nc3ccc4[nH]c(=O)[nH]c4c3)cnc21` [Compound Z217430364]: the “First screening IR (inhibition rate)” value is -10%.

Take `Cc1ccc(C(N)=O)c(OCc2ccc(C#N)cc2F)c1` [Compound Z217923492]: the “First screening IR (inhibition rate)” value came to 9%.

Staying with this assay, now noted: second screening, dissolved from fresh powder; n = 4; 10 μmol L−1 compound.
For the molecule `CS(=O)(=O)c1ccc(N2CCCCCC2)c(S(C)(=O)=O)c1` [Compound Z199538216], the “Second screening IR (inhibition rate)” value is recorded as -10%.

In the case of `O=C(/C=C/c1cccs1)Nc1cc(-c2cccc([N+](=O)[O-])c2)sc1C(=O)O` [Compound Z204342158], the “Second screening IR (inhibition rate)” value is recorded as -7%.
